Molecules are shown by their SMILES.

The target in the test is T1, histamine H3 receptors (Homo sapiens, UniProt Q9Y5N1).
T1 construct: expressed in transfected cells; host or cells: CHO K1 cells carrying pSwitch, transfected with pGeneH3, induced with mifepristone; clone 3H3; membrane preparation
T1 sequence (Q9Y5N1 whole entry): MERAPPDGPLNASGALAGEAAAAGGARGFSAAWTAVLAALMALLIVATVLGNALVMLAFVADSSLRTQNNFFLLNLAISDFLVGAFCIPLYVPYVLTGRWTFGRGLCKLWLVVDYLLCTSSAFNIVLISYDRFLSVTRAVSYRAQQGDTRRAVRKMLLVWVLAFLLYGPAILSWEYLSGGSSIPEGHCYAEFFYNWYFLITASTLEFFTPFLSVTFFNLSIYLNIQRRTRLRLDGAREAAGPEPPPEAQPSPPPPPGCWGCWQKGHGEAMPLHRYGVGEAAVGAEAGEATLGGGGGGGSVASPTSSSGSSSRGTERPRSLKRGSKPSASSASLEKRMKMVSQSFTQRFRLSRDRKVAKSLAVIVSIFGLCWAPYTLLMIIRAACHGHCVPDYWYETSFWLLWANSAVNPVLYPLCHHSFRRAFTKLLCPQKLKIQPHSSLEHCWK
The experiment in a line: Histamine H3 functional antagonist assay ([35S]-GTPγS SPA on membranes from H3 cells). The settings on record: hydrochloride salts tested; H3 functional antagonist assay using membrane prepared from cultured H3 cells; averages of a number of experiments; read-out: functional pKi (fpKi) (converted). The test is classed as biochemical. From the text: A membrane preparation containing histamine H3 receptors may be prepared in accordance with the following procedures:
(i) Generation of Histamine H3 Cell Line
DNA encoding the human histamine H3 gene (Huvar, A. et al. (1999) Mol. Pharmacol. 55(6), 1101-1107) was cloned into a holding vector, pCDNA3.1 TOPO (InVitrogen) and its cDNA was isolated from this vector by restriction digestion of plasmid DNA with the enzymes BamHI and Not-1 and ligated into the inducible expression vector pGene (InVitrogen) digested with the same enzymes. The GeneSwitch™ system (a system where in transgene expression is switched off in the absence of an inducer and switched on in the presence of an inducer) was performed as described in U.S. Pat. Nos. 5,364,791; 5,874,534; and 5,935,934. Ligated DNA was transformed into competent DH5α E. coli host bacterial cells and plated onto Luria Broth (LB) agar containing Zeocin™ (an antibiotic which allows the selection of cells expressing the sh ble gene which is present on pGene and pSwitch) at 50 μg ml^−1. Colonies containing the re-ligated plasmid were identified by restriction analysis. DNA for transfection into mammalian cells was prepared from 250 ml cultures of the host bacterium containing the pGeneH3 plasmid and isolated using a DNA preparation kit (Qiagen Midi-Prep) as per manufacturers guidelines (Qiagen).
CHO K1 cells previously transfected with the pSwitch regulatory plasmid (InVitrogen) were seeded at 2×10e6 cells per T75 flask in Complete Medium, containing Hams F12 (GIBCOBRL, Life Technologies) medium supplemented with 10% v/v dialysed foetal bovine serum, L-glutamine, and hygromycin (100 μg ml^−1), 24 hours prior to use. Plasmid DNA was transfected into the cells using Lipofectamine plus according to the manufacturers guidelines (InVitrogen). 48 hours post transfection cells were placed into complete medium supplemented with 500 μg ml^−1 Zeocin™.
10-14 days post selection 10 nM Mifepristone (InVitrogen), was added to the culture medium to induce the expression of the receptor. 18 hours post induction cells were detached from the flask using ethylenediamine tetra-acetic acid (EDTA; 1:5000; InVitrogen), following several washes with phosphate buffered saline pH 7.4 and resuspended in Sorting Medium containing Minimum Essential Medium (MEM), without phenol red, and supplemented with Earles salts and 3% Foetal Clone II (Hyclone). Approximately 1×10e7 cells were examined for receptor expression by staining with a rabbit polyclonal antibody, 4a, raised against the N-terminal domain of the histamine H3 receptor, incubated on ice for 60 minutes, followed by two washes in sorting medium. Receptor bound antibody was detected by incubation of the cells for 60 minutes on ice with a goat anti rabbit antibody, conjugated with Alexa 488 fluorescence marker (Molecular Probes). Following two further washes with Sorting Medium, cells were filtered through a 50 μm Filcon™ (BD Biosciences) and then analysed on a FACS Vantage SE Flow Cytometer fitted with an Automatic Cell Deposition Unit. Control cells were non-induced cells treated in a similar manner. Positively stained cells were sorted as single cells into 96-well plates, containing Complete Medium containing 500 μg ml^−1 Zeocin™ and allowed to expand before reanalysis for receptor expression via antibody and ligand binding studies. One clone, 3H3, was selected for membrane preparation.
(ii) Membrane Preparation from Cultured Cells
All steps of the protocol are carried out at 4° C. and with pre-cooled reagents. The cell pellet is resuspended in 10 volumes of homogenisation buffer (50 mM N-2-hydroxyethylpiperazine-N′-2-ethanesulfonic acid (HEPES), 1 mM ethylenediamine tetra-acetic acid (EDTA), pH 7.4 with KOH, supplemented with 10e-6M leupeptin (acetyl-leucyl-leucyl-arginal; Sigma L2884), 25 μg/ml bacitracin (Sigma B0125), 1 mM phenylmethylsulfonyl fluoride (PMSF) and 2×10e-6M pepstain A (Sigma)). […]
Background: GTPγS resists hydrolysis and so accumulates on activated G proteins.
Take `Cc1cccc(C(=O)N2CCC(c3nc4c(s3)CCN(C3CCC3)CC4)CC2)c1` [Example E82, 6-Cyclobutyl-2-{1-[(3-methylphenyl)carbonyl]-4-piperidinyl}-5,6,7,8-tetrahydro-4H-[1,3]thiazolo[4,5-d]azepine]: the Ki is under 1.26 nM.

Regarding `Cc1cccnc1C(=O)N1CCC(c2nc3c(s2)CCN(C2CCC2)CC3)CC1` [Example E83, 6-Cyclobutyl-2-{1-[(3-methyl-2-pyridinyl)carbonyl]-4-piperidinyl}-5,6,7,8-tetrahydro-4H-[1,3]thiazolo[4,5-d]azepine], the Ki is under 1.26 nM.

In the case of `Cc1cn(C)nc1C(=O)N1CCC(c2nc3c(s2)CCN(C2CCC2)CC3)CC1` [Example E85, 6-Cyclobutyl-2-{1-[(1,4-dimethyl-1H-pyrazol-3-yl)carbonyl]-4-piperidinyl}-5,6,7,8-tetrahydro-4H-[1,3]thiazolo[4,5-d]azepine], the Ki was under 1.26 nM.

Take `Cc1cc(C(=O)N2CCC(c3nc4c(s3)CCN(C3CCC3)CC4)CC2)nn1C` [Example E88, 6-Cyclobutyl-2-{1-[(1,5-dimethyl-1H-pyrazol-3-yl)carbonyl]-4-piperidinyl}-5,6,7,8-tetrahydro-4H-[1,3]thiazolo[4,5-d]azepine]: the Ki is under 1.26 nM.

As for `O=C(c1ccccn1)N1CCC(c2nc3c(s2)CCN(C2CCC2)CC3)CC1` [Example E90, 6-Cyclobutyl-2-[1-(2-pyridinylcarbonyl)-4-piperidinyl]-5,6,7,8-tetrahydro-4H-[1,3]thiazolo[4,5-d]azepine], the Ki was under 1.26 nM.

Regarding `Cc1cncc(C(=O)N2CCC(c3nc4c(s3)CCN(C3CCC3)CC4)CC2)n1` [Example E92, 6-Cyclobutyl-2-{1-[(6-methyl-2-pyrazinyl)carbonyl]-4-piperidinyl}-5,6,7,8-tetrahydro-4H-[1,3]thiazolo[4,5-d]azepine], the Ki was under 1.26 nM.

`Cc1cc(C(=O)N2CCC(c3nc4c(s3)CCN(C3CCC3)CC4)CC2)ccn1` [Example E93, 6-Cyclobutyl-2-{1-[(2-methyl-4-pyridinyl)carbonyl]-4-piperidinyl}-5,6,7,8-tetrahydro-4H-[1,3]thiazolo[4,5-d]azepine]: the Ki is under 1.26 nM.

For `Cc1nccc(C(=O)N2CCC(c3nc4c(s3)CCN(C3CCC3)CC4)CC2)n1` [Example E95, 6-Cyclobutyl-2-{1-[(2-methyl-4-pyrimidinyl)carbonyl]-4-piperidinyl}-5,6,7,8-tetrahydro-4H-[1,3]thiazolo[4,5-d]azepine], the Ki is under 1.26 nM.

For `O=S1(=O)CCCN1c1ccc(-c2nc3c(s2)CCN(C2CCC2)CC3)cc1` [Example E99, 6-Cyclobutyl-2-[4-(1,1-dioxido-2-isothiazolidinyl)phenyl]-5,6,7,8-tetrahydro-4H-[1,3]thiazolo[4,5-d]azepine], the Ki is under 1.26 nM.

On to `NC(=O)c1ccc(-c2nc3c(s2)CCN(C2CCC2)CC3)cn1` [Example E100, 5-(6-Cyclobutyl-5,6,7,8-tetrahydro-4H-[1,3]thiazolo[4,5-d]azepin-2-yl)-2-pyridinecarboxamide], for which the Ki was under 1.26 nM.

Consider `O=C1NCCN1c1ccc(-c2nc3c(s2)CCN(C2CCC2)CC3)cn1` [Example E103, 1-[5-(6-Cyclobutyl-5,6,7,8-tetrahydro-4H-[1,3]thiazolo[4,5-d]azepin-2-yl)-2-pyridinyl]-2-imidazolidinone], for which the Ki was under 1.26 nM.

Regarding `N#Cc1ccc(C(=O)N2CCC(c3nc4c(s3)CCN(C3CCC3)CC4)C2)cc1` (centres unmarked) [Example E105, 4-{[3-(6-Cyclobutyl-5,6,7,8-tetrahydro-4H-[1,3]thiazolo[4,5-d]azepin-2-yl)-1-pyrrolidinyl]carbonyl}benzonitrile], the Ki was under 1.26 nM.

For the compound `Cc1cccc(C(=O)N2CCC(c3nc4c(s3)CCN(C3CCC3)CC4)C2)n1` (centres unmarked) [Example E106, 6-Cyclobutyl-2-{1-[(6-methyl-2-pyridinyl)carbonyl]-3-pyrrolidinyl}-5,6,7,8-tetrahydro-4H-[1,3]thiazolo[4,5-d]azepine], the Ki was under 31.6 nM.

Take `c1cc(N2CCCC2)ncc1-c1nc2c(s1)CCN(C1CCC1)CC2` [Example E107, 6-Cyclobutyl-2-[6-(1-pyrrolidinyl)-3-pyridinyl]-5,6,7,8-tetrahydro-4H-[1,3]thiazolo[4,5-d]azepine]: the Ki is over 7.94 nM.

As to `c1cc(N2CCOCC2)ncc1-c1nc2c(s1)CCN(C1CCC1)CC2` [Example E108, 6-Cyclobutyl-2-[6-(4-morpholinyl)-3-pyridinyl]-5,6,7,8-tetrahydro-4H-[1,3]thiazolo[4,5-d]azepine], the Ki was under 1.26 nM.

On to `N#Cc1cccc(-c2nc3c(s2)CCN(C2CCC2)CC3)c1` [Example E112, 3-(6-Cyclobutyl-5,6,7,8-tetrahydro-4H-[1,3]thiazolo[4,5-d]azepin-2-yl)benzonitrile], for which the Ki was under 31.6 nM.

In the case of `CN(C)c1ccc(-c2nc3c(s2)CCN(C2CCC2)CC3)cc1` [Example E116, 4-(6-Cyclobutyl-5,6,7,8-tetrahydro-4H-[1,3]thiazolo[4,5-d]azepin-2-yl)-N,N-dimethylaniline], the Ki was under 1.26 nM.

(Values after patent publication US20080161289A1, “Fused Thiazole Derivatives Having Affinity for the Histamine H3 Receptor” (Glaxo Group Limited, priority 2005, published 2008).)
